Values quoted from earlier work in patent US20180110939A1, “METHOD, SYSTEM AND APPARATUS FOR CONTROLLED DELIVERY OF OPIOID AND OTHER MEDICATIONS” (Somniferum Labs LLC, priority 2016, published 2018).

Experiments:
[1] = for share of the total area under the concentration-time curve of morphine and its principle metabolites: following intravenous (IV) morphine administration in humans
[2] = converted via the liver
[3] = in vivo
[4] = in vivo; remark: listed apart in the source

Compound	share of the total area under the concentration-time curve of morphine and its principle metabolites [1]	amount generated relative to M-6-G from a given amount of morphine [2]	LD50 (lethal dose) [3]	plasma protein binding	time from which M-6-G was present in higher concentrations than morphine ([1]; following IV administration, h.p.l.c. method)	plasma concentrations higher than morphine [4]
CN1CC[C@]23c4c5ccc(O[C@@H]6O[C@H](C(=O)O)[C@@H](O)[C@H](O)[C@H]6O)c4O[C@H]2[C@@H](O)C=C[C@H]3[C@H]1C5 [M-3-G, morphine-3-glucuronide, reference compound]	approximately 75%	5 times	–	–	–	–
CN1CC[C@]23c4c5ccc(O)c4O[C@H]2[C@@H](O[C@@H]2O[C@H](C(=O)O)[C@@H](O)[C@H](O)[C@H]2O)C=C[C@H]3[C@H]1C5 [M-6-G, morphine-6-glucuronide]	15%	–	no LD50	low	≥ 1 h	approximately 4 fold
